This series can be described thus: Maximum solubility per liter of the active ingredients. Format: physicochemical. Particulars: active ingredient of aqueous canine water formula.

Take `[Cl-].[Cl-].[Mg+2]` [Magnium chloride]: the “Maximum Solubility/Liter” value came to 1100 µg/mL.

The record behind these values is patent publication US20100316732A1, “BEVERAGE COMPOSITIONS FOR THE PROMOTION OF JOINT HEALTH IN COMPANION ANIMALS” (priority 2008, published 2010).
